Assay results published in ChEMBL document CHEMBL1909046, “DrugMatrix in vitro pharmacology data”.

Legend:
Cytochrome P450 2E1 = Cytochrome P450 2E1 (Homo sapiens, UniProt P05181); settings: bti-tn-5b1-4; further: in other assays of this panel Not Active means under 50% inhibition at 10 µM
Cytochrome P450 1A2 = target: T1, Cytochrome P450 1A2 (Homo sapiens, UniProt P05177); settings: bti-tn-5b1-4; further: in other assays of this panel Not Active means under 50% inhibition at 10 µM
T1 sequence (P05177 whole entry): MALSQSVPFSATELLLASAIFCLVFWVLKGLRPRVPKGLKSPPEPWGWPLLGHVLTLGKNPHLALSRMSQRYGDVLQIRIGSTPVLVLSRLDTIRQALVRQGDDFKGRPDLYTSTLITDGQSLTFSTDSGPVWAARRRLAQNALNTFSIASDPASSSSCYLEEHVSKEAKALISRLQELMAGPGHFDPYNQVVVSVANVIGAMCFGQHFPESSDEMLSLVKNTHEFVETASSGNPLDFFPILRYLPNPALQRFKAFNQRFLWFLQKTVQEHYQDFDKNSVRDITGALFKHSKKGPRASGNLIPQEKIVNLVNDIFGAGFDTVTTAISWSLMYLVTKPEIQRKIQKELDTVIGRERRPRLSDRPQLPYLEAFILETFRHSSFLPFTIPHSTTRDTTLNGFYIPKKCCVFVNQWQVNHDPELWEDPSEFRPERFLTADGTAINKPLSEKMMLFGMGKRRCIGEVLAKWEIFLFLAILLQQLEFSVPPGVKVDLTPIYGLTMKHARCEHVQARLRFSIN

[1] = DRUGMATRIX: Calcium Channel Type L, Phenylalkylamine radioligand binding (ligand: [3H] (-)-Desmethoxyverapamil (D-888)); format: cell membranes, Rattus norvegicus, Wistar, Brain, Membrane; settings: Not Active = under 50% inhibition at 10 µM
[2] = DRUGMATRIX: beta-Lactamase enzyme inhibition (substrate: Nitrocefin); parameters: species or system Bacillus cereus; settings: Not Active = under 50% inhibition at 10 µM
[3] = DRUGMATRIX: Calcium Channel Type L, Benzothiazepine radioligand binding (ligand: [3H] Diltiazem); format: cell membranes, Rattus norvegicus, Wistar, Brain, Membrane; settings: Not Active = under 50% inhibition at 10 µM
[4] = target: Aldo-keto reductase family 1 member B1 (Rattus norvegicus, UniProt P07943); test: biochemical; format: tissue-based, Lens of camera-type eye;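 further: inhibition of aldose reductase enzyme activity, measured with DL-glyceraldehyde as the substrate; in other assays of this panel Not Active means under 50% inhibition at 10 µM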
Melanocortin receptor 3 = Melanocortin receptor 3 (Homo sapiens, UniProt P41968); format: cell membranes, Membrane; settings: hek293; further: in other assays of this panel Not Active means under 50% inhibition at 10 µM
Sequence of Melanocortin receptor 3 (P41968 whole entry): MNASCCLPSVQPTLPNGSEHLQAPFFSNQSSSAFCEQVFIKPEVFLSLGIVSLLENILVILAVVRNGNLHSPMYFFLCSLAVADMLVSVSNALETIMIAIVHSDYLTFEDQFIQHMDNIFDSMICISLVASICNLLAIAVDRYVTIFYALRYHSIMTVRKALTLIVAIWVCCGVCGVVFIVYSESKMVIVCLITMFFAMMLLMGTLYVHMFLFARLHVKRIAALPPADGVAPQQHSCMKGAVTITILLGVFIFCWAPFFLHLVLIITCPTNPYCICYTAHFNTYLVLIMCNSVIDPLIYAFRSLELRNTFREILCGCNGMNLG

[5] = target: T2, Angiotensin-converting enzyme (Oryctolagus cuniculus, UniProt P12822); format: tissue-based, Lung
T2 sequence (P12822 whole entry): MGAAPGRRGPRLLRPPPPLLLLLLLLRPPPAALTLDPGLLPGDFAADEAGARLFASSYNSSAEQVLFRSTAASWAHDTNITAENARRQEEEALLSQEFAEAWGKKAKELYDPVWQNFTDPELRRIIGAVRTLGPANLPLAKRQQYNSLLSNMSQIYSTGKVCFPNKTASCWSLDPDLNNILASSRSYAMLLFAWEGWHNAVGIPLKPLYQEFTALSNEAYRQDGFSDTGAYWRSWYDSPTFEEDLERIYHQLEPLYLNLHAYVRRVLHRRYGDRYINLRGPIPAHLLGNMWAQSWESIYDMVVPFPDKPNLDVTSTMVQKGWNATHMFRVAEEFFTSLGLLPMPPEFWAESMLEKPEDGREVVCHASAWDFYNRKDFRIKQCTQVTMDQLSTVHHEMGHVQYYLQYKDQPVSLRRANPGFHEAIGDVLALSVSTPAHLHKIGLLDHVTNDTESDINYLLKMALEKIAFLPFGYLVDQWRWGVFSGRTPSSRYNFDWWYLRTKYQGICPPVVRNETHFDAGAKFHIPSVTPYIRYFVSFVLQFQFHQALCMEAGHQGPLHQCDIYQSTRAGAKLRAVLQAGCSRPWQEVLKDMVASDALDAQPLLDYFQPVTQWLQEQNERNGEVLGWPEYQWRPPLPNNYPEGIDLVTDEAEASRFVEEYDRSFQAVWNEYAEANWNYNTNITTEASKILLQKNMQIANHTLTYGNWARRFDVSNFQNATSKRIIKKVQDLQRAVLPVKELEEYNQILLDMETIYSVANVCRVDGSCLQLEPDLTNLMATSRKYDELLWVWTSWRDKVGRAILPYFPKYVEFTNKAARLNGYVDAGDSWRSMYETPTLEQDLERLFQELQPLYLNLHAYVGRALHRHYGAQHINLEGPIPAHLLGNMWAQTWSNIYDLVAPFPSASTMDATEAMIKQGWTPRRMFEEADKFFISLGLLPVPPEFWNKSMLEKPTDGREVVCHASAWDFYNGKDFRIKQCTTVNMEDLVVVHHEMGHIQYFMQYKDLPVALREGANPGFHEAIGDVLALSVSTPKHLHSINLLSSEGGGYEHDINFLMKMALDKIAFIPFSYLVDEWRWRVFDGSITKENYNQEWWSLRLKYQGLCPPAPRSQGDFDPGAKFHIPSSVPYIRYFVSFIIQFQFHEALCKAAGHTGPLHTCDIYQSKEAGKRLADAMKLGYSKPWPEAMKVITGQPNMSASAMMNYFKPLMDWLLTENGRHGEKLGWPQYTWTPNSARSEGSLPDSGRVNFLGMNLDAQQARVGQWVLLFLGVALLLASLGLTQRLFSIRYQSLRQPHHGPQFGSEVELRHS

Sequence of Cytochrome P450 2E1 (P05181 whole entry): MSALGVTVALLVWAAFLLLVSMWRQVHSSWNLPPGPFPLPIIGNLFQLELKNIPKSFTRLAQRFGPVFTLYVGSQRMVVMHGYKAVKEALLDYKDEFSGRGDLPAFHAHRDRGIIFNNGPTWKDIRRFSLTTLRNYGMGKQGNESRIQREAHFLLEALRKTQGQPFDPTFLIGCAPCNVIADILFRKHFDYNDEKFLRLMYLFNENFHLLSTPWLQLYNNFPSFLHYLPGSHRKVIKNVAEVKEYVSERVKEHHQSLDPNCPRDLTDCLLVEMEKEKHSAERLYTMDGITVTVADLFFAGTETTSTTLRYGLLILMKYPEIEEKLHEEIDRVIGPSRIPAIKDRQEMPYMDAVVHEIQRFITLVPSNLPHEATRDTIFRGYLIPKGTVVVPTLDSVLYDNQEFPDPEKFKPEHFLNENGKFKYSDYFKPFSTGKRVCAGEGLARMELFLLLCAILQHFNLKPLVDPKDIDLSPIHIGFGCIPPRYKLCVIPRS

Row | SMILES | IC50 (Cytochrome P450 2E1) | Ki (Cytochrome P450 2E1) | IC50 (Cytochrome P450 1A2) | Ki (Cytochrome P450 1A2) | IC50 [1] | Ki [1] | IC50 [2] | Ki [2] | IC50 [3] | Ki [3] | IC50 [4] | IC50 (Melanocortin receptor 3) | IC50 [5] | IC50 ([2]; read-out: IC50) | IC50 ([1]; read-out: IC50) | Ki ([1]; read-out: Ki) | IC50 ([3]; read-out: IC50) | Ki ([3]; read-out: Ki)
1 | COc1cc(NS(=O)(=O)c2ccc(N)cc2)nc(OC)n1 [SULFADIMETHOXINE] | Not Active | Not Active | Not Active | Not Active | Not Active | Not Active | Not Active | Not Active | Not Active | Not Active | Not Active | Not Active | Not Active |  |  |  |  | 
2 | Cc1cc(C)nc(NS(=O)(=O)c2ccc(N)cc2)n1 [SULFAMETHAZINE] | Not Active | Not Active | Not Active | Not Active | Not Active | Not Active | Not Active | Not Active | Not Active | Not Active | Not Active | Not Active | Not Active |  |  |  |  | 
3 | C[C@]1(Cn2ccnn2)[C@H](C(=O)O)N2C(=O)C[C@H]2S1(=O)=O [TAZOBACTAM] | Not Active | Not Active | Not Active | Not Active | Not Active | Not Active |  |  | Not Active | Not Active | Not Active | Not Active | Not Active | 299 nM |  |  |  | 
4 | CN1C(C(=O)Nc2ccccn2)=C(O)c2sccc2S1(=O)=O [TENOXICAM] | Not Active | Not Active | Not Active | Not Active | Not Active | Not Active | Not Active | Not Active | Not Active | Not Active | Not Active | Not Active | Not Active |  |  |  |  | 
5 | CC(C)(C)c1ccc(C(O)CCCN2CCC(C(O)(c3ccccc3)c3ccccc3)CC2)cc1 (stereo not drawn) [TERFENADINE] | Not Active | Not Active | Not Active | Not Active |  |  | Not Active | Not Active |  |  | Not Active | Not Active | Not Active |  | 624 nM | 607 nM | 226 nM | 201 nM
6 | O=C1CCC(N2C(=O)c3ccccc3C2=O)C(=O)N1 (stereo not drawn) [THALIDOMIDE] | Not Active | Not Active | Not Active | Not Active | Not Active | Not Active | Not Active | Not Active | Not Active | Not Active | Not Active | Not Active | Not Active |  |  |  |  | 
7 | Cc1cccc(Nc2ccncc2S(=O)(=O)NC(=O)NC(C)C)c1 [TORSEMIDE] | Not Active | Not Active | Not Active | Not Active | Not Active | Not Active | Not Active | Not Active | Not Active | Not Active | Not Active | Not Active | Not Active |  |  |  |  | 
8 | CC(C)C[C@H](NC(=O)[C@@H](O)[C@H](N)Cc1ccccc1)C(=O)O [UBENIMEX] | Not Active | Not Active | Not Active | Not Active | Not Active | Not Active | Not Active | Not Active | Not Active | Not Active | Not Active | Not Active | Not Active |  |  |  |  | 
9 | Cc1onc(-c2ccccc2)c1-c1ccc(S(N)(=O)=O)cc1 [VALDECOXIB] | Not Active | Not Active | Not Active | Not Active | Not Active | Not Active | Not Active | Not Active | Not Active | Not Active | Not Active | Not Active | Not Active |  |  |  |  | 
10 | CC[C@]1(O)C[C@@H]2CN(CCc3c([nH]c4ccccc34)[C@@](C(=O)OC)(c3cc4c(cc3OC)N(C)[C@H]3[C@@](O)(C(=O)OC)[C@H](OC(C)=O)[C@]5(CC)C=CCN6CC[C@]43[C@@H]65)C2)C1 [VINBLASTINE] | Not Active | Not Active | Not Active | Not Active | Not Active | Not Active | Not Active | Not Active | Not Active | Not Active | Not Active | Not Active | Not Active |  |  |  |  | 
11 | CC(=O)CC(c1ccccc1)c1c(O)c2ccccc2oc1=O (stereo not drawn) [WARFARIN] | Not Active | Not Active | Not Active | Not Active | Not Active | Not Active | Not Active | Not Active | Not Active | Not Active | Not Active | Not Active | Not Active |  |  |  |  | 
12 | C[C@@H](N)[C@H]1CC[C@H](C(=O)Nc2ccncc2)CC1 [Y-27632] | Not Active | Not Active | Not Active | Not Active | Not Active | Not Active | Not Active | Not Active | Not Active | Not Active | Not Active | Not Active | Not Active |  |  |  |  | 
13 | [Cl-].[Cl-].[Zn+2] [ZINC CHLORIDE] | Not Active | Not Active | Not Active | Not Active | Not Active | Not Active | Not Active | Not Active | Not Active | Not Active | Not Active | Not Active | Not Active |  |  |  |  | 
